According to patent US11939583B2, “Method of producing autotrophic organisms with altered photorespiration and improved CO2 fixation” (Max-Planck-Gesellschaft zur Förderung der Wissenschaften …, priority 2018, dated 2024):
Blank lines part the entries; values can stand above or below the molecule they belong to.

Key:
[1] = biological target: T1, β-hydroxyaspartate aldolase (BHAA) (Paracoccus denitrificans, UniProt A1B8Z1); experiment: Enzyme assay, kinetic parameters of BHAA; type: biochemical, Paracoccus denitrificans DSM 413; conditions: 30° C., pH 7.5, glycine with 5 mM glyoxylate, glyoxylate with 20 mM glycine
T1 construct: His-tag (N); made in house; host or cells: E. coli BL21 AI
T1 sequence (A1B8Z1 1-387): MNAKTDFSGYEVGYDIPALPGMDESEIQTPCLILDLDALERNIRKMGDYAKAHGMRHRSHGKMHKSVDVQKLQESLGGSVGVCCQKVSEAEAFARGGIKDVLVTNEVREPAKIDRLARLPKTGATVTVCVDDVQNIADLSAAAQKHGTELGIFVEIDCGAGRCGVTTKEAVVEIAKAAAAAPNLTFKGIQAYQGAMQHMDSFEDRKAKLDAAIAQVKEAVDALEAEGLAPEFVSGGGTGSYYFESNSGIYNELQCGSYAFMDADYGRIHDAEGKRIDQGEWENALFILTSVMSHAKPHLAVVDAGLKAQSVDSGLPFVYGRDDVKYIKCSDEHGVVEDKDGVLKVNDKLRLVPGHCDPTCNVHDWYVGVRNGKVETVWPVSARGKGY
Description: (§1) In all enzyme assays, the oxidation of NADH or NADPH was followed at 340 nm or 360 nm on a Cary 60 UV-Vis photospectrometer (Agilent, Santa Clara, USA) in quartz cuvettes with a path length of 1 mm or 10 mm (Hellma Optik GmbH, Jena, Germany).
The reaction mixture contained 100 mM potassium phosphate buffer pH 7.5, 0.1 mM PLP, 0.2 mM NADH, 0.5 mM MgCl2, varying amounts of the respective substrates, and 4 nM BHAA. BHAD and ISRed were added in excess as coupling enzymes. […] To determine the kinetic parameters with (2R,3S)-β-hydroxyaspartate as substrate, the same assay mixture was used and GhrA was added in excess as coupling enzyme to convert glyoxylate into glycolate. To determine the kinetic parameters with D-threonine as substrate, the same assay mixture was used and alcohol dehydrogenase from Saccharomyces cerevisiae (Sigma-Aldrich, St. Louis, USA) was added in excess as coupling enzyme to convert acetaldehyde into ethanol.

[2] = biological target: T2, β-hydroxyaspartate dehydratase (BHAD) (Paracoccus denitrificans, UniProt A1B8Z2); experiment: Enzyme assay, kinetic parameters of BHAD; type: biochemical, Paracoccus denitrificans DSM 413; conditions: 30° C., pH 7.5, ISRed as coupling enzyme
T2 construct: His-tag (N); made in house; host or cells: E. coli BL21 AI
Description: as §1
The enzyme assay to determine the kinetic parameters of BHAD was performed at 30° C. in a total volume of 300 μl. The reaction mixture contained 100 mM phosphate buffer pH 7.5, 0.1 mM PLP, 0.2 mM NADH, varying amounts of the substrate (2R,35)-β-hydroxyaspartate, and 29 nM BHAD. ISRed was added in excess as coupling enzyme to convert iminosuccinate into L-aspartate. (2R,3S)-β-Hydroxyaspartate was custom-synthesized by NewChem (Newcastle upon Tyne, United Kingdom), and was determined to be >95% pure by NMR analysis.

Pbhc-BhcR complex = experiment: Electrophoretic mobility shift assay, effect of glyoxylate on complex formation; type: binding, P. denitrificans DSM 413; conditions: increasing concentrations of glyoxylate (0.01-1 mM), EMSA, FIG. 5
From the text: Fluorescently labeled DNA fragments for electrophoretic mobility shift assays (EMSA) were generated by PCR from genomic DNA of P. denitrificans DSM 413. For the Pbhc regulatory region, primers Pbhc_fw and Pbhc_rev-dye were used to generate a 238-bp fragment containing the putative Pbhc promoter. The primers AGAT-Fw and AGAT_rev-dye were used to generate a 255-bp fragment containing a fragment of the AGAT gene as negative controle. Pbhc rev dye and AGAT rev dye were 5′-labelled with the Dyomics 781 fluorescent dye (Microsynth AG, Balgach, Switzerland). Binding reactions between the DNA fragments (0.025 pmol), various amounts of the purified protein BhcR (400x/2,000x/4,000x/10,000x/20,000x/40,000x molar excess), and various concentrations of glyoxylate (0.01/0.05/0.1/0.2/0.5/1 mM final concentration) were performed in buffer A (20 mM potassium phosphate pH 7.0, 1 mM DTT, 5 mM MgCl2, 50 mM KCl, 15 μg mL^−1 bovine serum albumin, 50 μg mL^−1 herring sperm DNA, 5% v/v glycerol, 0.1% Tween20) in a total volume of 20 μL. After incubation of the reaction mixtures at 37° C. for 20 min, the samples were loaded onto a native 5% polyacrylamide gel and electrophoretically separated at 110 V for 60 min. BhcR:DNA-interactions were detected using an Odyssey FC Imaging System (LI-COR Biosciences, Lincoln, USA).

[3] = biological target: T3, iminosuccinate reductase (ISRed) (Paracoccus denitrificans, UniProt A1B8Z0); experiment: Enzyme assay, apparent kinetic parameters of ISRed; type: biochemical, Paracoccus denitrificans DSM 413; conditions: 30° C.; for Km: pH 7.5, cofactors measured with 2 mM (2R,3S)-β-hydroxyaspartate and BHAD, read-out: app. KM
T3 construct: His-tag (N); made in house; host or cells: E. coli BL21 AI
Description: as §1
The enzyme assay to determine the apparent kinetic parameters of ISRed was performed at 30° C. in a total volume of 250 μL. The reaction mixture contained 100 mM potassium phosphate buffer pH 7.5, 0.2 mM NADH, 0.1 mM PLP, varying amounts of (2R,3S)-β-hydroxyaspartate, and appropriate amounts of the enzymes BHAD and ISRed. Kinetics for iminosuccinate were measured with 15 nM ISRed, and appropriate amounts of (2R,3S)-β-hydroxyaspartate and BHAD to generate the desired concentrations of iminosuccinate at the onset of the reaction. Kinetics for NADH and NADPH were measured with 2 mM (2R,3S)-β-hydroxyaspartate, 214 nM BHAD, 28 nM ISRed, and varying amounts of the respective cofactor.

[4] = biological target: T4, aspartate-glyoxylate aminotransferase (AGAT) (Paracoccus denitrificans, UniProt A1B8Z3); experiment: Enzyme assay, kinetic parameters of AGAT; type: biochemical, Paracoccus denitrificans DSM 413; conditions: 30° C., pH 7.5, co-substrate fixed (20 mM L-aspartate, 5 mM glyoxylate, 20 mM oxaloacetate or 30 mM glycine); for Km: read-out: app. KM
T4 construct: His-tag (N); made in house; host or cells: E. coli BL21 AI
T4 sequence (A1B8Z3 1-396): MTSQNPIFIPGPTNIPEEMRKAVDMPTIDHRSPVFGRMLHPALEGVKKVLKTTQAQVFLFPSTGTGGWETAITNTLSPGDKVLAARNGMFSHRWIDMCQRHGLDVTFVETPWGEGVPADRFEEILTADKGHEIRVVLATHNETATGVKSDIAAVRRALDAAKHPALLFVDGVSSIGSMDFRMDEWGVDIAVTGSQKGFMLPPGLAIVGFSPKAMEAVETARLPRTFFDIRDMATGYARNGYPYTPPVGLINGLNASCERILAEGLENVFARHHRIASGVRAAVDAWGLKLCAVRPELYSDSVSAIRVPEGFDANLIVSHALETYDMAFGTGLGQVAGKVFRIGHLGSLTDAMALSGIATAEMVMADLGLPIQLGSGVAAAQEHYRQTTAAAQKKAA
Description: as §1
(§2) The enzyme assay to determine the kinetic parameters of AGAT with glyoxylate and L-aspartate as substrates was performed at 30° C. in a total volume of 300 μl. The reaction mixture contained 100 mM potassium phosphate buffer pH 7.5, 0.1 mM PLP, 0.2 mM NADH, varying amounts of the respective substrates, and 32 nM AGAT. Mdh was added in excess as coupling enzyme to convert oxaloacetate into malate. Kinetics for glyoxylate were measured with 20 mM L-aspartate; kinetics for L-aspartate were measured with 5 mM glyoxylate. To determine the kinetic parameters with oxaloacetate and glycine as substrates, the same assay mixture was used and GhrA was added in excess as coupling enzyme to convert glyoxylate into glycolate. […] To determine the kinetic parameters with L-serine or L-glutamate and glyoxylate as substrates, the same assay mixture was used and BHAD, BHAA, and Mdh were added in excess as coupling enzymes. Kinetics for L-serine and L-glutamate were measured with 5 mM glyoxylate.

[5] = tested on: expression levels of enzymes of the BHAP; experiment: Whole-cell shotgun proteomics, glycolate-grown vs. acetate-grown cells; type: cell-based, P. denitrificans; conditions: cells grown on 60 mM glycolate compared to 60 mM acetate, FIG. 4
Description: To acquire the proteome of P. denitrificans growing on different carbon sources, 20 mL cultures were grown to mid-exponential phase (OD600 ˜0.5) in minimal medium supplemented with 60 mM acetate or 60 mM glycolate. 4 replicate cultures were grown for each carbon source. Main cultures were inoculated from precultures grown in the same medium in a 1:1,000 dilution. Cultures were harvested by centrifugation at 4,000× g and 4° C. for 15 min. Supernatant was discarded and pellets were washed in 40 mL phosphate buffered saline (PBS; 137 mM NaCl, 2.7 mM KCl, 10 mM Na2HPO4, 1.8 mM KH2PO4, pH 7.4). […] Cell pellets in Eppendorf tubes were snap-frozen in liquid nitrogen and stored at −80° C. until they were used for the preparation of samples for LC-MS analysis and label-free quantification.
For whole cell lysis, cell pellets were first resuspended in 200 μL NH4HCO3 (100 mM supplemented with 5% SDS). […] Protein concentration in samples was determined via Pierce™ BCA assay (Thermo Scientific). […] Peptide mixes were recovered in 2% DMSO and then in 0.5% trifluoracetic acid (TFA) and analyzed via LC-MS on an electrospray ion source-connected Thermo QExactive Plus mass spectrometer (Thermo Scientific). […] Label-free data quantification was performed according to (Nature 2011, 473, 337; Proteomics 2013, 13, 2567; and J Proteome Res 2015, 14, 4472). […]

[6] = substrate: NCC(=O)O; experiment: purified protein, by the assay type; conditions: other: enzyme AGAT, 30° C., pH 7.5, co-substrate fixed (20 mM L-aspartate, 5 mM glyoxylate, 20 mM oxaloacetate or 30 mM glycine)
[7] = substrate: N[C@@H](CO)C(=O)O; experiment: Enzyme assay, kinetic parameters of AGAT; type: biochemical, Paracoccus denitrificans DSM 413; conditions: other: enzyme AGAT, 30° C., pH 7.5, co-substrate fixed (20 mM L-aspartate, 5 mM glyoxylate, 20 mM oxaloacetate or 30 mM glycine)
Description: as §1, §2

[8] = substrate: O=C(O)CC(=O)C(=O)O; experiment: Enzyme assay, kinetic parameters of AGAT; type: biochemical, Paracoccus denitrificans DSM 413; conditions: other: enzyme AGAT, 30° C., pH 7.5, co-substrate fixed (20 mM L-aspartate, 5 mM glyoxylate, 20 mM oxaloacetate or 30 mM glycine)
Description: as §1, §2

[9] = substrate: O=CC(=O)O; experiment: Enzyme assay, kinetic parameters of AGAT; type: biochemical, Paracoccus denitrificans DSM 413; conditions: other: enzyme AGAT, 30° C., pH 7.5, co-substrate fixed (20 mM L-aspartate, 5 mM glyoxylate, 20 mM oxaloacetate or 30 mM glycine)
Description: as §1, §2

Molecule: N[C@@H](C(=O)O)[C@H](O)C(=O)O [(2R,3S)-β-hydroxyaspartate]
app. kcat [1]: 33.11 ± 1.29 s⁻¹
Km ([1]; read-out: app. KM): 280 ± 30 µM
app. kcat [2]: 35.01 ± 0.82 s⁻¹
Km ([2]; read-out: app. KM): 200 ± 20 µM

effect on binding of BHAR to the promoter region (Pbhc-BhcR complex): binding was decreased
Molecule: O=CC(=O)O [Glyoxylate]

Molecule: N=C(CC(=O)O)C(=O)O [Iminosuccinate]
Km [3]: 88 ± 10 µM
app. kcat ([3]; pH 7.5, iminosuccinate generated from (2R,3S)-β-hydroxyaspartate by BHAD): 201.04 ± 10.20 s⁻¹

Molecule: N[C@@H](CC(=O)O)C(=O)O [L-Aspartate]
app. kcat [4]: 56.36 ± 0.73 s⁻¹
Km [4]: 2510 ± 100 µM

Molecule: N[C@@H](CCC(=O)O)C(=O)O [L-Glutamate]
app. kcat [4]: 5.03 ± 0.26 s⁻¹
Km [4]: 20600 ± 2330 µM

Molecule: NC(=O)C1=CN([C@@H]2O[C@H](COP(=O)(O)OP(=O)(O)OC[C@H]3O[C@@H](n4cnc5c(N)ncnc54)[C@H](O)[C@@H]3O)[C@@H](O)[C@H]2O)C=CC1 [NADH]
Km [3]: 23 ± 3 µM

Molecule: O=C(O)CO [glycolate]
expression of all four enzymes of the BHAP [5]: strongly increased expression

Molecule: NADPH
Km [3]: 330 ± 50 µM

B1: aspartate-glyoxylate aminotransferase (AGAT) (Paracoccus denitrificans PD1222) (protein)
chain: MTSQNPIFIPGPTNIPEEMRKAVDMPTIDHRSPVFGRMLHPALEGVKKVLKTTQAQVFLFPSTGTGGWETAITNTLSPGDKVLAARNGMFSHRWIDMCQRHGLDVTFVETPWGEGVPADRFEEILTADKGHEIRVVLATHNETATGVKSDIAAVRRALDAAKHPALLFVDGVSSIGSMDFRMDEWGVDIAVTGSQKGFMLPPGLAIVGFSPKAMEAVETARLPRTFFDIRDMATGYARNGYPYTPPVGLINGLNASCERILAEGLENVFARHHRIASGVRAAVDAWGLKLCAVRPELYSDSVSAIRVPEGFDANLIVSHALETYDMAFGTGLGQVAGKVFRIGHLGSLTDAMALSGIATAEMVMADLGLPIQLGSGVAAAQEHYRQTTAAAQKKAA
notes: His-tag (N); made in house; host or cells: E. coli BL21 AI
Km [6]: 9520 ± 400 µM
kcat [6]: 0.76 s⁻¹
kcat/Km [6]: 79.7 M⁻¹ s⁻¹
Km [7]: 2100 ± 240 µM
kcat [7]: 8.82 ± 0.31 s⁻¹
kcat/Km [7]: 4200 M⁻¹ s⁻¹
Km [8]: 2900 ± 270 µM
kcat [8]: 0.76 ± 0.02 s⁻¹
kcat/Km [8]: 262 M⁻¹ s⁻¹
Km [9]: 430 ± 20 µM
kcat [9]: 58.1 ± 0.82 s⁻¹
kcat/Km [9]: 134000 M⁻¹ s⁻¹
